According to paper PMC11395237, “Characteristics of a Novel Zearalenone Lactone Hydrolase ZHRnZ and Its Thermostability Modification” (International Journal of Molecular Sciences, 2024):

Tests used:
Assay in all cases: HPLC-fluorescence of residual substrate
Assay type in all cases: biochemical
Details in all cases: read-out: Km (μg.mL^-1); pH 9.0, 45 °C, 10 min, 25 μg/mL enzyme, 10-60 μg/mL ZEN
[1] = target: T1, ZHRnZ (Rosellinia necatrix, UniProt A0A1W2TNW3, E122Q)
T1 construct: gene SAMD00023353_4301030; His-tag from pET28a (BamHI/XhoI), codon-optimized gene, E. coli BL21(DE3), Ni-NTA purified; homodimer by homology model
Source text: (§1) HPLC-fluorescence of residual substrate on ZHRnZ

[2] = target: T2, ZHRnZ (Rosellinia necatrix, UniProt A0A1W2TNW3, E122R)
T2 construct: gene SAMD00023353_4301030; His-tag from pET28a (BamHI/XhoI), codon-optimized gene, E. coli BL21(DE3), Ni-NTA purified; homodimer by homology model
Source text: as §1

[3] = target: T3, ZHRnZ (Rosellinia necatrix, UniProt A0A1W2TNW3)
T3 construct: gene SAMD00023353_4301030; His-tag from pET28a (BamHI/XhoI), codon-optimized gene, E. coli BL21(DE3), Ni-NTA purified; homodimer by homology model
Source text: as §1

T2 sequence (A0A1W2TNW3 whole entry E122R): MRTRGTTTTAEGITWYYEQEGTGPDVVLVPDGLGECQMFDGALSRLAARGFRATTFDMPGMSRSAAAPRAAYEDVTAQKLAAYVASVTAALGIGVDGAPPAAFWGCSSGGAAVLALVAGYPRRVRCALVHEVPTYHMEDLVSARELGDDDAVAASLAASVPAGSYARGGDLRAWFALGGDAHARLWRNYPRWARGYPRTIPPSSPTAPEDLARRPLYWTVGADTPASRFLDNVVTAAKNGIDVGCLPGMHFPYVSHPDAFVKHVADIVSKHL
T3 sequence (A0A1W2TNW3 entry or part of it): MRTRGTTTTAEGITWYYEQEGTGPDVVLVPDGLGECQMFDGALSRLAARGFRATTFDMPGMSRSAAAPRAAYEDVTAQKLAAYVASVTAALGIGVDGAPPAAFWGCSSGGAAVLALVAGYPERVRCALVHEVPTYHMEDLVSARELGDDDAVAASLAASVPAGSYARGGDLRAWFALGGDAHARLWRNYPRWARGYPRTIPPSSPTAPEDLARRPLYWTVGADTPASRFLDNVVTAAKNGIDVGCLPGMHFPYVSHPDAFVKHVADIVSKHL
T1 sequence (A0A1W2TNW3 whole entry E122Q): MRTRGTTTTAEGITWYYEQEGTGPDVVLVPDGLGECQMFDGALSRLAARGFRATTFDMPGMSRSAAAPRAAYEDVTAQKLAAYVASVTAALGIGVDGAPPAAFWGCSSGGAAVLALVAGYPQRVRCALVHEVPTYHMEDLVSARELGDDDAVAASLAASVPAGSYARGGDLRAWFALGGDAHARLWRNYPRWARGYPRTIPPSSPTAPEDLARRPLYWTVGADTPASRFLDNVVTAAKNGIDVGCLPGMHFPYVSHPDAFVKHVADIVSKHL

Structure (SMILES): C[C@H]1CCCC(=O)CCC/C=C/c2cc(O)cc(O)c2C(=O)O1 [ZEN]
- Km [1]: 271 µM
- Km [2]: 25.5 µM
- Km [3]: 67.6 µM
